Earlier results on one compound are cited in patent US7442558B2, “Phthalamide-lanthanide complexes for use as luminescent markers” (The Regents of the University of California, priority 1999, dated 2008).

Several values for one entry are separate records, joined by “and”; a condition that tells them apart may be missing. Identical values can stand only once. Counter-ions that a name gives are not always drawn.

The conditions of the series: in 0.05 M H2SO4; reference standard; cited from earlier work.

Consider `C=C[C@H]1C[N@@]2CC[C@H]1C[C@H]2[C@H](O)c1ccnc2ccc(OC)cc12` [quinine sulfate], for which the absolute quantum yield was 0.54 and 0.5460.
